In patent US20230104936A1, “TRPML MODULATORS” (Casma Therapeutics, Inc., priority 2019, published 2023):

System: TFEB
Test: TFEB nuclear translocation assay, HeLa wt cells
Assay type: cell-based
Details: Homo sapiens, HeLa, 2 h, 2 hrs compound treatment, Table 1 does not say HeLa wt or TRPML1 KO
Procedure, shortened: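 TFEB translocation into the nucleus of HeLa wt cells is scored by high-content immunofluorescence after 2 hrs of compound treatment at 37° C, reported as AC50.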

For `Cc1noc(NS(=O)(=O)c2ccc(S(=O)(=O)N(C)C)cc2)c1C1=CCN(c2ccc(Cl)cc2F)CC1` [Compound A-65, N1-(4-(1-(4-chloro-2-fluorophenyl)-1,2,3,6-tetrahydropyridin-4-yl)-3-methylisoxazol-5-yl)-N4,N4-dimethylbenzene-1,4-disulfonamide], the AC50 was ≥ 10000 nM.
`O=S(=O)(Nc1cc(Cl)ccc1N1CCOCC1)c1ccc(S(=O)(=O)C(F)F)cc1` [Compound A-277, N-[5-chloro-2-(morpholin-4-yl)phenyl]-4-difluoromethanesulfonylbenzene-1-sulfonamide] was tested, and the AC50 was ≥ 10000 nM.
In the case of `CN(C)S(=O)(=O)c1ccc(S(=O)(=O)Nc2ccccc2N2CCC(C3CCCCO3)CC2)cc1` (stereo not shown) [Compound A-435, N1,N1-dimethyl-N4-{2-[4-(oxan-2-yl)piperidin-1-yl]phenyl}benzene-1,4-disulfonamide], the AC50 is reported as ≤ 2000 nM.
With `CN1Cc2ccccc2C2(CCN(c3ccccc3NS(=O)(=O)c3ccc(S(C)(=O)=O)cc3)CC2)C1` [Compound A-398, 4-methanesulfonyl-N-(2-{2-methyl-2,3-dihydro-1H-spiro[isoquinoline-4,4′-piperidin]-1′-yl}phenyl)benzene-1-sulfonamide; formic acid] the AC50 was 2010 to 8000 nM.
For `CN(C)S(=O)(=O)c1ccc(S(=O)(=O)Nc2cccnc2N2CCC(c3ccc(Cl)cc3F)CC2)cc1` [Compound A-109, N4-{2-[4-(4-chloro-2-fluorophenyl)piperidin-1-yl]pyridin-3-yl}-N1,N1-dimethylbenzene-1,4-disulfonamide], the AC50 was ≤ 2000 nM.
With `CS(=O)(=O)c1ccc(S(=O)(=O)Nc2ccccc2N2CCC3(CC2)CN(Cc2cccnc2)c2cc(F)ccc23)cc1` [Compound A-407, N-(2-{6-fluoro-1-[(pyridin-3-yl)methyl]-1,2-dihydrospiro[indole-3,4′-piperidin]-1′-yl}phenyl)-4-methanesulfonylbenzene-1-sulfonamide] the AC50 was ≤ 2000 nM.
For `CC(c1cccc(F)c1N1CCCCC1)S(=O)(=O)c1ccc(S(=O)(=O)C(F)F)cc1` (stereo not shown) [Compound A-973, 1-{2-[1-(4-difluoromethanesulfonylbenzenesulfonyl)ethyl]-6-fluorophenyl}piperidine], the AC50 was ≤ 2000 nM.
`C[C@@H]1COC[C@@H](C)N1C[C@H]1CCN(c2c(F)cccc2NS(=O)(=O)c2ccc(S(=O)(=O)N(C)C)cc2)C1` (relative stereo) [Compound A-897, N4-{2-[(3R)-3-{[3,5-dimethylmorpholin-4-yl]methyl}pyrrolidin-1-yl]-3-fluorophenyl}-N1,N1-dimethylbenzene-1,4-disulfonamide] was tested, and the AC50 was ≤ 2000 nM.
`N#Cc1ccc(S(=O)(=O)Nc2ccccc2N2CCC(c3ccc(Cl)cc3F)CC2)cc1` [Compound A-101, N-{2-[4-(4-chloro-2-fluorophenyl)piperidin-1-yl]phenyl}-4-cyanobenzene-1-sulfonamide] showed an AC50 of 2010 to 8000 nM.
With `COCCCC1CCN(c2ccccc2NS(=O)(=O)c2ccc(S(=O)(=O)N(C)C)cc2)CC1` [Compound A-496, N4-{2-[4-(3-methoxypropyl)piperidin-1-yl]phenyl}-N1,N1-dimethylbenzene-1,4-disulfonamide] the AC50 was ≤ 2000 nM.
With `CNC(=O)c1ccc(S(=O)(=O)Nc2ccccc2N2CCC(c3ccc(Cl)cc3F)CC2)cc1` [Compound A-48, 4-({2-[4-(4-chloro-2-fluorophenyl)piperidin-1-yl]phenyl}sulfamoyl)-N-methylbenzamide] the AC50 was ≥ 10000 nM.
`CC1(C)CC2(CCN(c3ccccc3NS(=O)(=O)CCc3ccccc3)CC2)CO1` [Compound A-743, N-(2-{3,3-dimethyl-2-oxa-8-azaspiro[4.5]decan-8-yl}phenyl)-2-phenylethane-1-sulfonamide] was tested, and the AC50 was ≥ 10000 nM.
`CC1COCC(C)N1CC1CCN(c2c(F)cccc2NS(=O)(=O)c2ccc(S(=O)(=O)C(F)F)cc2)CC1` (stereo not shown) [Compound A-866, 4-difluoromethanesulfonyl-N-(2-{4-[(3,5-dimethylmorpholin-4-yl)methyl]piperidin-1-yl}-3-fluorophenyl)benzene-1-sulfonamide] was tested, and the AC50 was ≤ 2000 nM.
`Cc1cc(NS(=O)(=O)c2ccc3c(c2)CCC3)c(Cl)c(N2CCOCC2)c1` [Compound A-823, N-[2-chloro-5-methyl-3-(morpholin-4-yl)phenyl]-2,3-dihydro-1H-indene-5-sulfonamide] was tested, and the AC50 was ≥ 10000 nM.
In the case of `O=S(=O)(Nc1ccccc1N1CCC(c2ccc(Cl)cc2F)CC1)c1ccccc1F` [Compound A-79, N-{2-[4-(4-chloro-2-fluorophenyl)piperidin-1-yl]phenyl}-2-fluorobenzene-1-sulfonamide], the AC50 is reported as ≥ 10000 nM.
In the case of `CN(C)S(=O)(=O)c1ccc(S(=O)(=O)Nc2ccccc2N2CC3CN(Cc4ccccc4)CC3C2)cc1` (stereo not shown) [Compound A-502, N4-(2-{5-benzyl-octahydropyrrolo[3,4-c]pyrrol-2-yl}phenyl)-N1,N1-dimethylbenzene-1,4-disulfonamide; formic acid], the AC50 is reported as ≤ 2000 nM.
Compound `O=S(=O)(Nc1ccccc1N1CCC(c2ccc(F)cc2F)CC1)c1ccc(C(F)F)cn1` [Compound A-137, 5-(difluoromethyl)-N-{2-[4-(2,4-difluorophenyl)piperidin-1-yl]phenyl}pyridine-2-sulfonamide] has an AC50 of 2010 to 8000 nM.
For `CN(C)S(=O)(=O)c1ccc(S(=O)(=O)Nc2ccccc2N2CCC(c3ccc(Cl)cc3)CC2)cc1` [Compound A-47, N4-{2-[4-(4-chlorophenyl)piperidin-1-yl]phenyl}-N1,N1-dimethylbenzene-1,4-disulfonamide], the AC50 was ≤ 2000 nM.
For `CN(C)S(=O)(=O)c1ccc(S(=O)(=O)Nc2ccccc2N2CCN(C3CCCCC3)CC2)cc1` [Compound A-53, N4-[2-(4-cyclohexylpiperazin-1-yl)phenyl]-N1,N1-dimethylbenzene-1,4-disulfonamide], the AC50 was 2010 to 8000 nM.
With `O=S(=O)(Nc1cccc(Cl)c1N1CCOCC1)c1cnn2c1CCCC2` [Compound A-369, N-[3-chloro-2-(morpholin-4-yl)phenyl]-4H,5H,6H,7H-pyrazolo[1,5-a]pyridine-3-sulfonamide] the AC50 was ≥ 10000 nM.
Compound `CN(C)S(=O)(=O)c1ccc(S(=O)(=O)Nc2ccccc2N2CCN(CC3CCOC3)CC2)cc1` (stereo not shown) [Compound A-509, N1,N1-dimethyl-N4-(2-{4-[(oxolan-3-yl)methyl]piperazin-1-yl}phenyl)benzene-1,4-disulfonamide] has an AC50 of 2010 to 8000 nM.
`COCC1(C)CCN(c2ccccc2NS(=O)(=O)c2ccc(S(C)(=O)=O)cc2)CC1` [Compound A-697, 4-methanesulfonyl-N-{2-[4-(methoxymethyl)-4-methylpiperidin-1-yl]phenyl}benzene-1-sulfonamide] gave an AC50 of 2010 to 8000 nM.
In the case of `CCN1CCN(c2ccc(Cl)cc2NS(=O)(=O)c2ccc3c(c2)CCC3)C(=O)C1` [Compound A-314, N-[5-chloro-2-(4-ethyl-2-oxopiperazin-1-yl)phenyl]-2,3-dihydro-1H-indene-5-sulfonamide], the AC50 is reported as ≥ 10000 nM.
For `CN(C)S(=O)(=O)c1ccc(S(=O)(=O)Nc2ccccc2N2CCN(C(=O)C3CC3(C)C)CC2)cc1` (stereo not shown) [Compound A-427, N4-{2-[4-(2,2-dimethylcyclopropanecarbonyl)piperazin-1-yl]phenyl}-N1,N1-dimethylbenzene-1,4-disulfonamide], the AC50 was 2010 to 8000 nM.
`CC(c1cccc(F)c1N1CCC(CN2C[C@H]3C[C@@H](C2)O3)CC1)S(=O)(=O)c1ccc(S(=O)(=O)N(C)C)cc1` (single isomer, unassigned) [Compound A-848] was tested, and the AC50 was ≤ 2000 nM.
For `CN(C)S(=O)(=O)c1ccc(S(=O)(=O)Nc2ccccc2N2CCN(CC(F)(F)F)CC2)cc1` [Compound A-560, N1,N1-dimethyl-N4-{2-[4-(2,2,2-trifluoroethyl)piperazin-1-yl]phenyl}benzene-1,4-disulfonamide], the AC50 was ≤ 2000 nM.
For `C[C@@H]1CN(CC2CCCN(c3c(F)cccc3NS(=O)(=O)c3ccc(S(=O)(=O)N(C)C)cc3)CC2)C[C@H](C)O1` (stereo partly drawn) [Compound A-918, N4-[2-(4-{[(2R,6S)-2,6-dimethylmorpholin-4-yl]methyl}azepan-1-yl)-3-fluorophenyl]-N1,N1-dimethylbenzene-1,4-disulfonamide], the AC50 was ≤ 2000 nM.
For `COCC1(C)CCN(c2ccccc2NS(=O)(=O)Cc2ccc3c(c2)COC3)CC1` [Compound A-612, 1-(1,3-dihydro-2-benzofuran-5-yl)-N-{2-[4-(methoxymethyl)-4-methylpiperidin-1-yl]phenyl}methanesulfonamide], the AC50 was 2010 to 8000 nM.
In the case of `CN(C)C(=O)N1CCN(c2ccccc2NS(=O)(=O)c2ccc(S(=O)(=O)N(C)C)cc2)CC1` [Compound A-325, 4-{2-[4-(dimethylsulfamoyl)benzenesulfonamido]phenyl}-N,N-dimethylpiperazine-1-carboxamide], the AC50 is reported as ≥ 10000 nM.
`Cn1nccc1S(=O)(=O)Nc1ccccc1N1CCN(c2ccc(Cl)cc2F)CC1` [Compound A-15, N-{2-[4-(4-chloro-2-fluorophenyl)piperazin-1-yl]phenyl}-1-methyl-1H-pyrazole-5-sulfonamide] was tested, and the AC50 was ≥ 10000 nM.
In the case of `CN(C)S(=N)(=O)c1ccc(S(=O)(=O)Nc2ccccc2N2CCN(C(=O)C(C)(C)C)CC2)cc1` (stereo not shown) [Compound A-321, 4-({2-[4-(2,2-dimethylpropanoyl)piperazin-1-yl]phenyl}sulfamoyl)-N,N-dimethylbenzene-1-sulfonoimidamide], the AC50 is reported as ≥ 10000 nM.
Compound `CN(C)S(=O)(=O)c1ccc(S(=O)(=O)Nc2cccc(Cl)c2N2CCN(C(=O)C(C)(C)C)CC2)cc1` [Compound A-352, N4-{3-chloro-2-[4-(2,2-dimethylpropanoyl)piperazin-1-yl]phenyl}-N1,N1-dimethylbenzene-1,4-disulfonamide] has an AC50 of 2010 to 8000 nM.
Compound `CS(=N)(=O)c1ccc(S(=O)(=O)Nc2ccccc2N2CCC(c3c(F)cccc3F)CC2)cc1` (stereo not shown) [Compound A-166, N-{2-[4-(2,6-difluorophenyl)piperidin-1-yl]phenyl}-4-[imino(methyl)oxo-λ^6-sulfanyl]benzene-1-sulfonamide] has an AC50 of 2010 to 8000 nM.
With `CS(=O)(=O)c1ccc(S(=O)(=O)Nc2ccccc2N2CCC(c3ccc(Cl)cc3F)CC2)cc1` [Compound A-98, N-{2-[4-(4-chloro-2-fluorophenyl)piperidin-1-yl]phenyl}-4-methanesulfonylbenzene-1-sulfonamide] the AC50 was ≤ 2000 nM.
